The values that follow come from patent US10639345B2, “Compositions for preserving photoreceptor cells, retinal pigment epithelial cells, or visual function” (Massachusetts Eye and Ear Infirmary, priority 2010, dated 2020).

Where a SMILES comes first, the peptide text is derived from it. The star is where a group is joined. Cbz = O=C(OCc1ccccc1)*; CH2F = FC*

The test system of this assay is photoreceptors. Description: TEM quantification of photoreceptor death after retinal detachment in RIP-3−/− mice. In kind it is in vivo. The settings on record: day three after retinal detachment. The protocol:
TEM was performed as previously described (Hisatomi T et al. (2008). J. CLIN. INVEST. 118:2025-2038). […] Over 200 photoreceptors each eye were photographed and subjected to quantification of cell death modes in a masked fashion. Photoreceptors showing cellular shrinkage and nuclear condensation were defined as apoptotic cells, while photoreceptors associated with cellular and organelle swelling and discontinuities in nuclear and plasma membrane were defined as necrotic cells. The presence of electron-dense granular materials were reported to occur subsequent to both apoptotic and necrotic cell death and cells with these findings were labeled simply as end-stage cell death/unclassified (Hisatomi T et al. (2003) AM. J. PATHOL. 162:1869-1879; Erickson P A et al. (1983) INVEST. OPHTHALMOL. VIS. SCI. 24:927-942).
The morphology of the RIP-3−/− retina after retinal detachment was also assessed by TEM. […] RIP-3 deficiency inhibits the switch to necrotic cell death by Z-VAD treatment and prevents photoreceptor death after retinal detachment. Scale bar, 5 μm.

On to `COC(=O)CC(NC(=O)C(C)NC(=O)C(NC(=O)OCc1ccccc1)C(C)C)C(=O)CF` (stereo not drawn) [Z-VAD, Benzyloxycarbonyl-Val-Ala-Asp(OMe)-fluoromethylketone] (Cbz-Val-Ala-Asp(OMe)-CH2F; configuration not given here), for which the “% apoptotic cells (TEM)” value came out at 4.8±1.3%, the “% necrotic cells (TEM)” value is on record as 6.4±1.3% and the “% unclassified (TEM)” value came out at 0.9±0.4%.
